Results from US12370235B2, “Synthetic, non-natural antimicrobial peptides inspired by Staphylococcus auricularis delta toxin” (University of Saskatchewan, priority 2021, dated 2025).
Ends that are not written are not given here.

How the values were obtained:
S. aureus ATCC 29213 = test: MIC, broth dilution; assay type: cell-based, Staphylococcus aureus; settings: Table 5; STIP3 variants, highest concentration 100 μg/mL
Description: (§1) MIC determination. MICs were measured using peptides with 95% purity. For bacterial studies, cation-adjusted Mueller Hinton (MH) broth was used as the growth medium whereas Yeast Peptone Dextrose (YPD; 10 g/L yeast extract, 20 g/L peptone, 20 g/L dextrose) was used for Candida spp. and other yeast. Microorganisms were diluted to an optical density of […] in MH or YPD broth and a 180 μl volume was mixed with 20 μl of peptide arrayed as a 2-fold dilution series in a flat-bottom 96-well microtitre plate. A control was performed using 20 μl of sterile water. Plates were incubated as standing cultures overnight at 37° C.
(§2) Determination of minimum inhibitory concentrations. The MICs were measured for bioactive peptides identified from the initial screen. For bacterial studies, cation-adjusted Mueller Hinton (MH) broth was used as the growth medium whereas YPD was used for C. albicans. Bacterial cultures were diluted to a OD value of 6×10^−4 in MH broth and a 180 μl volume was mixed with 20 μl of peptide arrayed as 2-fold dilution series in a 96-well plate. For the positive control, 20 μl of sterile water was used. Plates were incubated as standing cultures overnight at 37° C. The lowest peptide concentration that resulted no observed microbial growth after an overnight treatment was defined as the MIC.

[1] = tested on: S. aureus ATCC 33592 (MRSA SCCmec type III); test: MIC, broth dilution; assay type: cell-based, Staphylococcus aureus; settings: Table 5; STIP3 variants, highest concentration 100 μg/mL
Description: as §1, §2

[2] = tested on: S. aureus ATCC BAA-2313 (MRSA SCCmec type XI); test: MIC, broth dilution; assay type: cell-based, Staphylococcus aureus; settings: Table 5; STIP3 variants, highest concentration 100 μg/mL
Description: as §1, §2

[3] = tested on: S. aureus ATCC BAA-44 (MRSA SCCmec type I); test: MIC, broth dilution; assay type: cell-based, Staphylococcus aureus; settings: Table 5; STIP3 variants, highest concentration 100 μg/mL
Description: as §1, §2

[4] = tested on: S. aureus ATCC BAA-41 (MRSA SCCmec type II); test: MIC, broth dilution; assay type: cell-based, Staphylococcus aureus; settings: Table 5; STIP3 variants, highest concentration 100 μg/mL
Description: as §1, §2

[5] = tested on: S. aureus ATCC BAA-2094 (MRSA SCCmec type V); test: MIC, broth dilution; assay type: cell-based, Staphylococcus aureus; settings: Table 5; STIP3 variants, highest concentration 100 μg/mL
Description: as §1, §2

[6] = tested on: S. aureus ATCC BAA-42 (MRSA SCCmec type VI); test: MIC, broth dilution; assay type: cell-based, Staphylococcus aureus; settings: Table 5; STIP3 variants, highest concentration 100 μg/mL
Description: as §1, §2

[7] = tested on: S. aureus ATCC BAA-1683 (MRSA SCCmec type IV); test: MIC, broth dilution; assay type: cell-based, Staphylococcus aureus; settings: Table 5; STIP3 variants, highest concentration 100 μg/mL
Description: as §1, §2

[8] = tested on: Candida haemulonii AR 395; test: MIC, YPD broth, CDC and FDA AR Candida isolate panel; assay type: cell-based; settings: Table 9 below the line: only 200 or 100 μg/mL tested; values reported as 100 are ≤100 μg/mL
Description: as §1

[9] = tested on: Candida duobushaemulonii AR 391; test: as above; assay type: cell-based; settings: Table 9 below the line: only 200 or 100 μg/mL tested; values reported as 100 are ≤100 μg/mL
Description: as §1

[10] = tested on: Candida lusitaniae AR 398; test: as above; assay type: cell-based; settings: Table 9 below the line: only 200 or 100 μg/mL tested; values reported as 100 are ≤100 μg/mL
Description: as §1

[11] = tested on: Candida duobushaemulonii AR 392; test: as above; assay type: cell-based; settings: Table 9 below the line: only 200 or 100 μg/mL tested; values reported as 100 are ≤100 μg/mL
Description: as §1

Kodamae ohmeri AR 396 = test: as above; assay type: cell-based; settings: Table 9 below the line: only 200 or 100 μg/mL tested; values reported as 100 are ≤100 μg/mL
Description: as §1

[12] = tested on: Candida duobushaemulonii AR 394; test: as above; assay type: cell-based; settings: Table 9 below the line: only 200 or 100 μg/mL tested; values reported as 100 are ≤100 μg/mL
Description: as §1

[13] = tested on: Candida haemulonii AR 393; test: as above; assay type: cell-based; settings: Table 9 below the line: only 200 or 100 μg/mL tested; values reported as 100 are ≤100 μg/mL
Description: as §1

Candida krusei AR 397 = test: as above; assay type: cell-based; settings: Table 9 below the line: only 200 or 100 μg/mL tested; values reported as 100 are ≤100 μg/mL
Description: as §1

[14] = tested on: Saccharomyces cerevisiae AR 400; test: as above; assay type: cell-based; settings: Table 9 below the line: only 200 or 100 μg/mL tested; values reported as 100 are ≤100 μg/mL
Description: as §1

[15] = tested on: Saccharomyces cerevisiae AR 399; test: as above; assay type: cell-based; settings: Table 9 below the line: only 200 or 100 μg/mL tested; values reported as 100 are ≤100 μg/mL
Description: as §1

[16] = tested on: Mannheimia haemolytica ATCC 33393; test: MIC, broth dilution; assay type: cell-based; settings: Table 11; highest concentration 25 μg/mL
Description: as §1, §2
The ability of STIP3 variants to inhibit the growth of Mannheimia haemolytica ATCC 33393 was evaluated. This included an alanine scan of STIP3-1 (FIG. 8 & Table 10) as well as 30 rationally-designed STIPs that were evaluated in the preceding Examples against other pathogens (Table 11). Substitutions at a greater number of sites were tolerated in the context of antimicrobial activity. Moreover, the inclusion of basic natural and unnatural amino acids (e.g. lysine, ornithine, and arginine) at positions 3, 4 and 11 (i.e. X1, X2, and X4 of SEQ ID NO: 32) to afford a more uniformly cationic peptide increased activity against M. haemolytica.

C. albicans MYA-2876 = test: MIC, YPD broth; assay type: cell-based, Candida albicans; settings: Table 8
Description: as §1, §2

| Sequence | MIC S. aureus ATCC 29213 (S. aureus ATCC 29213) | MIC S. aureus ATCC 33592 (III) [1] | MIC S. aureus ATCC BAA 2313 (XI) [2] | MIC S. aureus ATCC BAA 44 (I) [3] | MIC S. aureus ATCC BAA 41 (II) [4] | MIC S. aureus ATCC BAA 2094 (V) [5] | MIC S. aureus ATCC BAA 42 (VI) [6] | MIC S. aureus ATCC BAA 1683 (IV) [7] | MIC (μg/mL) Candida haemulonii AR 395 [8] | MIC (μg/mL) Candida duobushaemulonii AR 391 [9] | MIC (μg/mL) Candida lusitaniae AR 398 [10] [µg/mL] | MIC (μg/mL) Candida duobushaemulonii AR 392 [11] | MIC (μg/mL) Kodamae ohmeri AR 396 (Kodamae ohmeri AR 396) | MIC (μg/mL) Candida duobushaemulonii AR 394 [12] | MIC (μg/mL) Candida haemulonii AR 393 [13] | MIC (μg/mL) Candida krusei AR 397 (Candida krusei AR 397) [µg/mL] | MIC (μg/mL) Saccharomyces cerevisiae AR 400 [14] [µg/mL] | MIC (μg/mL) Saccharomyces cerevisiae AR 399 [15] [µg/mL] | MIC (μg/mL) M. haemolytica [16] | MIC C. albicans MYA-2876 (C. albicans MYA-2876) [µg/mL] |
| --- | --- | --- | --- | --- | --- | --- | --- | --- | --- | --- | --- | --- | --- | --- | --- | --- | --- | --- | --- | --- |
| TVDGLVKWILATVKKFA [STIP3-17, TVDGLVKWILATVKKFA] | > (no inhibition was observed at the highest concentration of peptide tested: 100 μg/mL for the STIP3 variants) | > (no inhibition was observed at the highest concentration of peptide tested: 100 μg/mL for the STIP3 variants) | > (no inhibition was observed at the highest concentration of peptide tested: 100 μg/mL for the STIP3 variants) | > (no inhibition was observed at the highest concentration of peptide tested: 100 μg/mL for the STIP3 variants) | > (no inhibition was observed at the highest concentration of peptide tested: 100 μg/mL for the STIP3 variants) | > (no inhibition was observed at the highest concentration of peptide tested: 100 μg/mL for the STIP3 variants) | > (no inhibition was observed at the highest concentration of peptide tested: 100 μg/mL for the STIP3 variants) | > (no inhibition was observed at the highest concentration of peptide tested: 100 μg/mL for the STIP3 variants) | > (values below the line were determined using two concentrations of peptide 200 or 100 μg/mL) | > (values below the line were determined using two concentrations of peptide 200 or 100 μg/mL) | ≤ 100 | > (values below the line were determined using two concentrations of peptide 200 or 100 μg/mL) | > (values below the line were determined using two concentrations of peptide 200 or 100 μg/mL) | > (values below the line were determined using two concentrations of peptide 200 or 100 μg/mL) | > (values below the line were determined using two concentrations of peptide 200 or 100 μg/mL) | ≤ 100 | ≤ 100 | ≤ 100 | > (> symbol indicates that no inhibition was observed at the highest concentration of peptide tested: 25 μg/mL) | 12.5 |
| TVGGLVKWILAAVKKFA [STIP3-12, TVGGLVKWILAAVKKFA] | 25 µg/mL | 25 µg/mL | 25 µg/mL | 25 µg/mL | 25 µg/mL | 50 µg/mL | 25 µg/mL | 25 µg/mL | > (values below the line were determined using two concentrations of peptide 200 or 100 μg/mL) | > (values below the line were determined using two concentrations of peptide 200 or 100 μg/mL) | ≤ 100 | > (values below the line were determined using two concentrations of peptide 200 or 100 μg/mL) | > (values below the line were determined using two concentrations of peptide 200 or 100 μg/mL) | > (values below the line were determined using two concentrations of peptide 200 or 100 μg/mL) | > (values below the line were determined using two concentrations of peptide 200 or 100 μg/mL) | ≤ 100 | ≤ 100 | ≤ 100 | 25 µg/mL | 100 |
| TVGGLVKWILDTFKKFA [STIP3-11, TVGGLVKWILDTFKKFA] | 50 µg/mL | 50 µg/mL | 100 µg/mL | 100 µg/mL | 50 µg/mL | 100 µg/mL | 50 µg/mL | 50 µg/mL | > (values below the line were determined using two concentrations of peptide 200 or 100 μg/mL) | > (values below the line were determined using two concentrations of peptide 200 or 100 μg/mL) | ≤ 100 | > (values below the line were determined using two concentrations of peptide 200 or 100 μg/mL) | > (values below the line were determined using two concentrations of peptide 200 or 100 μg/mL) | > (values below the line were determined using two concentrations of peptide 200 or 100 μg/mL) | > (values below the line were determined using two concentrations of peptide 200 or 100 μg/mL) | ≤ 100 | ≤ 100 | ≤ 100 | > (> symbol indicates that no inhibition was observed at the highest concentration of peptide tested: 25 μg/mL) | 25 |
